Marks after values point to notes of the source that are not given here.
Assay: 28-day rat study, plasma metabolite profiling: markers for Energy metabolism decreased
Type: in vivo
Details: for 3-Hydroxybutyrate, treatment ratio versus control / Citrate, treatment ratio versus control / Pyruvate, treatment ratio versus control / Succinate, treatment ratio versus control: male rats, plasma; for capability of inducing impaired energy metabolism: statement in words
Description: Drinking water was also offered ad libitum.
The samples were centrifuged for generation of plasma.

Compound | 3-Hydroxybutyrate, treatment ratio versus control (day 7) | Citrate, treatment ratio versus control (day 7) | Pyruvate, treatment ratio versus control (day 7) | Succinate, treatment ratio versus control (day 7) | capability of inducing impaired energy metabolism | 3-Hydroxybutyrate, treatment ratio versus control (day 14) | Citrate, treatment ratio versus control (day 14) | Pyruvate, treatment ratio versus control (day 14) | Succinate, treatment ratio versus control (day 14)
NC(=O)c1ccc(N)nc1 [6-Aminonicotinamide i.p., 6-Aminopyridine-3-carboxamide] | 0.31* | 0.62* | 0.31* | 0.92* | capable of inducing impaired energy metabolism |  |  |  | 
COCCO [2-Methoxyethanol] | 0.45* | 0.7* | 0.63* | 0.91 | capable of inducing impaired energy metabolism | 0.24* | 0.39* | 0.66* | 0.99

Source: patent US20150044702A1, “MEANS AND METHODS FOR ASSESSING DISORDERS RELATED TO IMPAIRED IRON […] ENERGY METABOLISM” (BASF SE, priority 2012, published 2015)
